These results are taken from patent US20240076279A1, “NOVEL BENZOAZEPINE COMPOUND, AND COMPOSITION AND USE THEREOF” (XUZHOU MEDICAL UNIVERSITY, priority 2021, published 2024).

One data set has as its system MDCK cells. The data set is described as follows: PKD vesicle experiment (forskolin-induced vesicles of MDCK cells in matrigel). The data set is classed as cell-based. Conditions: 10 μM Forsklin, day 12. How it is done:
The vesicles similar to those in PKD disease are formed by using MDCK cells under the action of AC enzyme agonist forskolin to simulate the occurrence and development of the disease, and the test compounds are respectively administered to observe their effects on the vesicles.
The MDCK cells were cultured at 37° C./5% CO2, with DMEM F12 medium (purchased from Combio technology company) supplemented with 10% fetal bovine serum and 1% double antibody.
During the re-cooling of matrigel, MDCK cells were digested and counted. […] The cells were incubated for 12 days, in which the medium was changed every 12 h, and photos were taken at days 4, 6, 8, 10, and 12. The photo area was selected to track the specific vesicles.
The diameters of vesicles were compared on day 12 to assess the effect of test compounds.

The next data set relates to PKD1 knockout mice. The data set is described as follows: PKD mouse experiment. The class given is in vivo. Conditions: 2 mg/kg subcutaneous injection, seven days of administration. From the text: Such compounds have antagonistic effects on arginine vasopressin receptors, and can inhibit the effect of cAMP in vivo, thereby inhibiting the occurrence and development of PKD. In this experiment, PKD1 knockout mice were used to evaluate the efficacy of these compounds.
1. Numbering the mice to perform gene identification: After 3 days of birth, the mice were marked by the method of cutting toes. The cut toes were placed in EP tubes marked in advance to boil, and then the genes were identified by agarose electrophoresis after PCR.
2. Preparation of corresponding medicaments: The corresponding weights of drugs were precisely weighed with an electronic balance and placed in new EP tubes. Then the corresponding amounts of HPMC were added with a pipette to prepare the medicaments of the desired concentration.
3. Administration to mice: The administrations of medicaments to mice was started on Day 6 or 5 after birth (the underweight mice were administered with medicaments on Day 6, and the rest of mice were administered with medicaments on Day 5), and the administration time was fixed (for example, 9:00 am). […]
5. Data processing: The total weight of the left and right kidneys, and the proportion of the kidneys, etc. were calculated.

Another data set concerns the target human V2R (Homo sapiens, UniProt P30518). The note with it: for residence time: read-out: RT (residence time of the compound to be tested on cells); for koff: read-out: koff (dissociation constant between the compound to be tested and cells); for kon: read-out: kon (association constant between the compound to be tested and cells).
For a further data set, the system named is ADPKD patients. Conditions: cited from earlier work.

Sequence of human V2R (P30518 whole entry): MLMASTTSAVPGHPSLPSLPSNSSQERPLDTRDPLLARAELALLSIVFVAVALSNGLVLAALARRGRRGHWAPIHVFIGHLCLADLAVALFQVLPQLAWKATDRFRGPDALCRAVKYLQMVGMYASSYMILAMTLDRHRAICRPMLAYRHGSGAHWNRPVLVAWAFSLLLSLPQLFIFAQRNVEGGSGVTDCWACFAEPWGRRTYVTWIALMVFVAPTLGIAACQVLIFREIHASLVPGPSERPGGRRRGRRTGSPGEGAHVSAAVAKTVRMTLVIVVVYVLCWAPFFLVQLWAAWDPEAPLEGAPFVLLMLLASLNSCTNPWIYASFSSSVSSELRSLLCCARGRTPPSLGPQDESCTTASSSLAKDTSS

For the compound `Cc1ccccc1C(=O)Nc1ccc(C(=O)N2CCCC(NCCCN3CCOCC3)c3cc(Cl)ccc32)c(C)c1` (stereo not drawn) [Compound 1, N-(4-(7-chloro-5-((3-morpholinopropyl)amino)-2,3,4,5-tetrahydro-1H-benzo[b]azepine-1-carbonyl)-3-methylphenyl)-2-methylbenzamide], in the data set on MDCK cells, the “The diameter of vesicles” value is recorded as 172.0 μm. Moreover, the “Proportion of the kidneys %” value with PKD1 knockout mice came to 11.85%.

Take `Cc1ccccc1C(=O)Nc1ccc(C(=O)N2CCCC(NCCCCN3CCOCC3)c3cc(Cl)ccc32)c(C)c1` (stereo not drawn) [Compound 2, N-(4-(7-chloro-5-((4-morpholinobutyl)amino)-2,3,4,5-tetrahydro-1H-benzo[b]azepine-1-carbonyl)-3-methylphenyl)-2-methylbenzamide]: at human V2R, the residence time was 12 ± 2 min, the dissociation rate constant (koff) is 0.00135 s⁻¹ and the on-rate (kon) is 160000 M⁻¹ s⁻¹.

Take `Cc1ccccc1C(=O)Nc1ccc(C(=O)N2CCCC(NCCCCCN3CCOCC3)c3cc(Cl)ccc32)c(C)c1` (stereo not drawn) [Compound 3, N-(4-(7-chloro-5-((5-morpholinopentyl)amino)-2,3,4,5-tetrahydro-1H-benzo[b]azepine-1-carbonyl)-3-methylphenyl)-2-methylbenzamide]: at human V2R, the residence time turned out to be 14 ± 2 min, the koff was 0.00118 s⁻¹ and the on-rate (kon) is 105000 M⁻¹ s⁻¹.

In the case of `Cc1ccccc1C(=O)Nc1ccc(C(=O)N2CCCC(NCCN3CCOCC3)c3cc(Cl)ccc32)c(C)c1` (stereo not drawn) [Compound 4, N-(4-(7-chloro-5-((2-morpholinoethyl)amino)-2,3,4,5-tetrahydro-1H-benzo[b]azepine-1-carbonyl)-3-methylphenyl)-2-methylbenzamide], at human V2R, the residence time worked out at 21 ± 2 min, the koff is 0.000783 s⁻¹ and the kon was 333000 M⁻¹ s⁻¹. Further, on human V2R (text summary of Table 7), the “affinity to V2R compared with Tolvaptan” value was “comparable to the affinity of Tolvaptan” and the “residence time with receptor compared with Tolvaptan” value is reported as “longer residence time with receptor than Tolvaptan”.

For `Cc1ccccc1C(=O)Nc1ccc(C(=O)N2CCCC(NCCCc3ccncc3)c3cc(Cl)ccc32)c(C)c1` (stereo not drawn) [Compound 5, N-(4-(7-chloro-5-((3-(pyridin-4-yl)propyl)amino)-2,3,4,5-tetrahydro-1H-benzo[b]azepine-1-carbonyl)-3-methylphenyl)-2-methylbenzamide], on human V2R, the residence time amounted to 13 ± 1 min, the dissociation rate constant (koff) is 0.00125 s⁻¹ and the on-rate (kon) was 165000 M⁻¹ s⁻¹. Further, on human V2R (text summary of Table 7), the “affinity to V2R compared with Tolvaptan” value is on record as “comparable to the affinity of Tolvaptan”.

For the compound `Cc1ccccc1C(=O)Nc1ccc(C(=O)N2CCCC(NCCC(=O)N3CCOCC3)c3cc(Cl)ccc32)c(C)c1` (stereo not drawn) [Compound 13, N-(4-(7-chloro-5-((3-morpholino-3-oxopropyl)amino)-2,3,4,5-tetrahydro-1H-benzo[b]azepine-1-carbonyl)-3-methylphenyl)-2-methylbenzamide], at human V2R, the residence time worked out at 9 ± 1 min, the koff was 0.00183 s⁻¹ and the on-rate constant (kon) is 683000 M⁻¹ s⁻¹. In addition, the “affinity to V2R compared with Tolvaptan” value at human V2R (text summary of Table 7) is reported as “comparable to the affinity of Tolvaptan”.

Take `Cc1ccccc1C(=O)Nc1ccc(C(=O)N2CCCC(NCCCN3CCN(C)CC3)c3cc(Cl)ccc32)c(C)c1` (stereo not drawn) [Compound 17, N-(4-(7-chloro-5-((3-(4-methylpiperazin-1-yl)propyl)amino)-2,3,4,5-tetrahydro-1H-benzo[b]azepine-1-carbonyl)-3-methylphenyl)-2-methylbenzamide]: on human V2R, the residence time came out at 7 ± 1 min, the dissociation rate constant (koff) is 0.00233 s⁻¹ and the kon is 350000 M⁻¹ s⁻¹.

As for `Cc1ccccc1C(=O)Nc1ccc(C(=O)N2CCCC(NCCOc3ccccc3)c3cc(Cl)ccc32)c(C)c1` (stereo not drawn) [Compound 21, N-(4-(7-chloro-5-((2-phenoxyethyl)amino)-2,3,4,5-tetrahydro-1H-benzo[b]azepine-1-carbonyl)-3-methylphenyl)-2-methylbenzamide], on human V2R, the inhibition constant Ki stood at 77 ± 26 nM, the residence time is 17 ± 2 min, the off-rate (koff) was 0.001 s⁻¹ and the kon was 18300 M⁻¹ s⁻¹.

For the compound `Cc1ccccc1C(=O)Nc1ccc(C(=O)N2CCCC(NCCCCCOc3ccccc3)c3cc(Cl)ccc32)c(C)c1` (stereo not drawn) [Compound 24, N-(4-(7-chloro-5-((5-phenoxypentyl)amino)-2,3,4,5-tetrahydro-1H-benzo[b]azepine-1-carbonyl)-3-methylphenyl)-2-methylbenzamide], at human V2R, the Ki came out at 31 ± 7 nM, the residence time is 7 ± 1 min, the koff was 0.0025 s⁻¹ and the on-rate (kon) was 183000 M⁻¹ s⁻¹.

With `Cc1ccccc1C(=O)Nc1ccc(C(=O)N2CCCC(O)c3cc(Cl)ccc32)c(C)c1` (stereo not drawn) [Tolvaptan, tolvaptan, reference compound], the “The diameter of vesicles” value in the data set with MDCK cells turned out to be 183.7 μm. Moreover, the “Proportion of the kidneys %” value in the data set with PKD1 knockout mice is 15.80%. Moreover, the serum hepatic transaminases entry in the data set with ADPKD patients (clinical trials, some patients) is listed as “increased to more than three times the normal level”. Further, the “excretion rate of sodium and urea” value in the data set on ADPKD patients (prospective study, 30 ADPKD patients, after administration) was “increased”.

The koff is the rate constant with which the complex falls apart. Usually kon stands for a measure of how fast the partners come together. As a reminder, the Ki is a measure of affinity in units of concentration, obtained from inhibition or displacement. Higher therefore signals lower affinity.
